pEC50: −log10 of the molar value.

For this experiment, the target named is T1, GFRα1-RET (Homo sapiens, UniProt P56159).
T1 construct: expressed in transfected cells; host or cells: MG87 murine fibroblasts, stably transfected
T1 sequence (P56159 25-429 limits assumed): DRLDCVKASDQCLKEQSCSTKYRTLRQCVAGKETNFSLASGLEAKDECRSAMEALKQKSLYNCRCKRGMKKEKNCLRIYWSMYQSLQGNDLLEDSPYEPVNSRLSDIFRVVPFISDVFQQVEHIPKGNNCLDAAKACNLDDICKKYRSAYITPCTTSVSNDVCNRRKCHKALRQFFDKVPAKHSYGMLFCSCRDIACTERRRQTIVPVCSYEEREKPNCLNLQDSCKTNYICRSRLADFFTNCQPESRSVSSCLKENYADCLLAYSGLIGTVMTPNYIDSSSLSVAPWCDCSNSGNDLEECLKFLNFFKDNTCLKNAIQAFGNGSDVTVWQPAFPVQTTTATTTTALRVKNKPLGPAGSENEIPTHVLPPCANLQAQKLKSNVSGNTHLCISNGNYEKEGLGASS
Put plainly: Elk1 reporter-gene (luciferase) assay in cells expressing GFRα1-RET. The following applies: MG87 murine fibroblasts stably transfected with PathDetect Elk-1, GFRα1 and RET, 6 concentrations, agonist/activator activity. It is filed as cell-based. As for the experimental part: For ECso determination, a dose-response test was performed using 6 concentrations of each tested compound. Dose-response curves were fitted using the sigmoidal dose-response (variable slope) analysis in GraphPad Prism program (Graph Pad Inc) and ECso of agonist/activator activity was calculated. Dose-response experiments were all performed in duplicate, two times independently.

By pEC50 is commonly meant −log10 of the EC50, conventionally taken in molar units. Low readings indicate a large EC50, high ones a small EC50. `Cc1cc(S(=O)(=O)N(C)CC2CC2)cc(N2[C@@H]3CC[C@H]2CN(C(=O)c2ccc(F)cc2Cl)C3)c1O` [compound 092, 3-[(1S,5R)-3-(2-chloro-4-fluoro-benzoyl)-3,8-diazabicyclo[3.2.1]octan-8-yl]-N-(cyclopropylmethyl)-4-hydroxy-N,5-dimethyl-benzenesulfonamide] had a pEC50 of over 6.00.
On to `O=C(c1ccc(F)cc1Cl)N1C[C@H]2CC[C@@H](C1)N2c1cc(S(=O)(=O)N2CCC(c3ccc(F)cc3)CC2)ccc1O` [compound 065, (2-chloro-4-fluoro-phenyl)-[(1S,5R)-8-[5-[[4-(4-fluorophenyl)-1-piperidyl]sulfonyl]-2-hydroxy-phenyl]-3,8-diazabicyclo[3.2.1]octan-3-yl]methanone], for which the pEC50 is over 6.00.
For `CN(C)c1ccc(S(=O)(=O)N2CCC(c3ccccc3)CC2)cc1N1[C@@H]2CC[C@H]1CN(C(=O)c1ccc(F)cc1Cl)C2` [compound 121, (2-chloro-4-fluoro-phenyl)-[(1S,5R)-8-[2-(dimethylamino)-5-[(4-phenyl-1-piperidyl)sulfonyl]phenyl]-3,8-diazabicyclo[3.2.1]octan-3-yl]methanone], the negative logarithm of the EC50 (pEC50) is over 6.00.
Molecule `CN(C1(C)COC1)S(=O)(=O)c1cc(Cl)c(O)c(N2[C@@H]3CC[C@H]2CN(C(=O)c2ccc(F)cc2Cl)C3)c1` [compound 106, 3-chloro-5-[(1S,5R)-3-(2-chloro-4-fluoro-benzoyl)-3,8-diazabicyclo[3.2.1]octan-8-yl]-4-hydroxy-N-methyl-N-(3-methyloxetan-3-yl)benzenesulfonamide] had a pEC50 of over 6.00.
For the molecule `O=C(c1ccc(F)cc1Cl)N1C[C@H]2CC[C@@H](C1)N2c1cc(S(=O)(=O)N2CCC(c3ccc(F)cc3)CC2)cc2c1OCC2` [compound 056, (2-chloro-4-fluoro-phenyl)-[(1S,5R)-8-[5-[[4-(4-fluorophenyl)-1-piperidyl]sulfonyl]-2,3-dihydrobenzofuran-7-yl]-3,8-diazabicyclo[3.2.1]octan-3-yl]methanone], the pEC50 is over 6.00.
In turn, `COc1ccc(S(=O)(=O)N2CCC(C(F)(F)F)CC2)cc1N1[C@@H]2CC[C@H]1CN(C(=O)c1ccc(F)cc1Cl)C2` [compound 007, (2-chloro-4-fluoro-phenyl)-[(1S,5R)-8-[2-methoxy-5-[[4-(trifluoromethyl)-1-piperidyl]sulfonyl]phenyl]-3,8-diazabicyclo[3.2.1]octan-3-yl]methanone] gave a pEC50 of over 6.00.
`O=C(c1ccc(F)cc1Cl)N1C[C@H]2CC[C@@H](C1)N2c1cc(S(=O)(=O)N2CCC(c3ccc(F)cc3)CC2)cc(F)c1O` [compound 084, (2-chloro-4-fluoro-phenyl)-[(1S,5R)-8-[3-fluoro-5-[[4-(4-fluorophenyl)-1-piperidyl]sulfonyl]-2-hydroxy-phenyl]-3,8-diazabicyclo[3.2.1]octan-3-yl]methanone] showed a negative logarithm of the EC50 (pEC50) of over 6.00.
Turning to `CCCN(C)S(=O)(=O)c1ccc(OCOC)c(N2[C@@H]3CC[C@H]2CN(C(=O)c2ccc(F)cc2Cl)C3)c1` [compound 031, 3-[(1S,5R)-3-(2-chloro-4-fluoro-benzoyl)-3,8-diazabicyclo[3.2.1]octan-8-yl]-4-(methoxymethoxy)-N-methyl-N-propyl-benzenesulfonamide], the pEC50 is 5.00 to 6.00.
`COc1ccc(S(=O)(=O)N2CCN(Cc3ccccc3)CC2)cc1N1[C@@H]2CC[C@H]1CN(C(=O)c1ccc(F)cc1Cl)C2` [compound 014] gave a pEC50 of 5.00 to 6.00.
The molecule `COc1ccc(S(=O)(=O)N2CCCC2)cc1N1[C@@H]2CC[C@H]1CN(C(=O)c1ccc(F)cc1Cl)C2` [compound 004, (2-chloro-4-fluoro-phenyl)-[(1S,5R)-8-(2-methoxy-5-pyrrolidin-1-ylsulfonyl-phenyl)-3,8-diazabicyclo[3.2.1]octan-3-yl]methanone] gave a pEC50 of 5.00 to 6.00.
The molecule `O=C(c1ccc(F)cc1Cl)N1C[C@H]2CC[C@@H](C1)N2c1cc(S(=O)(=O)N2CCC(F)CC2)cc2c1OCC2` [compound 130, (2-chloro-4-fluoro-phenyl)-[(1S,5R)-8-[5-[(4-fluoro-1-piperidyl)sulfonyl]-2,3-dihydrobenzofuran-7-yl]-3,8-diazabicyclo[3.2.1]octan-3-yl]methanone] showed a pEC50 of over 6.00.
Next, `COc1ccc(S(=O)(=O)N2CCC(c3ccc(F)cc3)CC2)cc1N1[C@@H]2CC[C@H]1CN(C(=O)c1ccc(F)cc1Cl)C2` [compound 039, (2-chloro-4-fluoro-phenyl)-[(1S,5R)-8-[5-[[4-(4-fluorophenyl)-1-piperidyl]sulfonyl]-2-methoxy-phenyl]-3,8-diazabicyclo[3.2.1]octan-3-yl]methanone]: over 6.00; `O=C(c1ccc(F)cc1Cl)N1C[C@H]2CC[C@@H](C1)N2c1cc(S(=O)(=O)N2CCC(c3ccccc3)CC2)ccc1C1CC1` [compound 080, (2-chloro-4-fluoro-phenyl)-[(1S,5R)-8-[2-cyclopropyl-5-[(4-phenyl-1-piperidyl)sulfonyl]phenyl]-3,8-diazabicyclo[3.2.1]octan-3-yl]methanone]: over 6.00.
Take `COc1ccc(S(=O)(=O)N2CCC(Oc3ccccc3)C2)cc1N1C2CCC1CN(C(=O)c1ccc(F)cc1Cl)C2` (racemic) [compound 126, (2-chloro-4-fluoro-phenyl)-[(1S,5R)-8-[2-methoxy-5-[(3SR)-3-phenoxypyrrolidin-1-yl]sulfonyl-phenyl]-3,8-diazabicyclo[3.2.1]octan-3-yl]methanone]: the pEC50 is over 6.00.
As for `CC1(NS(=O)(=O)c2cc(Cl)c(O)c(N3[C@@H]4CC[C@H]3CN(C(=O)c3ccc(F)cc3Cl)C4)c2)CCC1` [compound 102, 3-chloro-5-[(1S,5R)-3-(2-chloro-4-fluoro-benzoyl)-3,8-diazabicyclo[3.2.1]octan-8-yl]-4-hydroxy-N-(1-methylcyclobutyl) benzenesulfonamide], the pEC50 is over 6.00.
On to `O=C(c1ccc(F)cc1Cl)N1C[C@H]2CC[C@@H](C1)N2c1cc(S(=O)(=O)N2CCC(c3ccccc3)CC2)ccc1-c1c[nH]cn1` [compound 081], for which the pEC50 was over 6.00.
`O=C(c1ccc(F)cc1Cl)N1C[C@H]2CC[C@@H](C1)N2c1cc(S(=O)(=O)N2CCN(CCc3ccc(F)cc3)CC2)cc2c1OCC2` [compound 059, (2-chloro-4-fluoro-phenyl)-[(1S,5R)-8-[5-[4-[2-(4-fluorophenyl)ethyl]piperazin-1-yl]sulfonyl-2,3-dihydrobenzofuran-7-yl]-3,8-diazabicyclo[3.2.1]octan-3-yl]methanone] showed a negative-log EC50 (pEC50) of over 6.00.
Molecule `CC1(C)COCCN1S(=O)(=O)c1cc(Cl)c(O)c(N2[C@@H]3CC[C@H]2CN(C(=O)c2ccc(F)cc2Cl)C3)c1` [compound 131, [(1S,5R)-8-[3-chloro-5-(3,3-dimethylmorpholin-4-yl)sulfonyl-2-hydroxy-phenyl]-3,8-diazabicyclo[3.2.1]octan-3-yl]-(2-chloro-4-fluoro-phenyl)methanone] had a pEC50 of over 6.00.
Molecule `COc1ccc(S(=O)(=O)N2CCC(F)CC2)cc1N1[C@@H]2CC[C@H]1CN(C(=O)c1ccc(F)cc1Cl)C2` [compound 006] had a pEC50 of 5.00 to 6.00.
In turn, `O=C(c1ccc(F)cc1Cl)N1C[C@H]2CC[C@@H](C1)N2c1cc(S(=O)(=O)N2CCN(CCc3ccc(Cl)cc3)CC2)ccc1O` [compound 064, (2-chloro-4-fluoro-phenyl)-[(1S,5R)-8-[5-[4-[2-(4-chlorophenyl)ethyl]piperazin-1-yl]sulfonyl-2-hydroxy-phenyl]-3,8-diazabicyclo[3.2.1]octan-3-yl]methanone] had a pEC50 of over 6.00.
Next, `CCCN(C)S(=O)(=O)c1ccc(OC)c(N2CCN(C(=O)c3ccc(F)cc3C(F)(F)F)CC2C)c1` (racemic) [compound 021, 4-methoxy-N-methyl-N-propyl-3-[rac-(2S)-4-[4-fluoro-2-(trifluoromethyl)benzoyl]-2-methyl-piperazin-1-yl]benzenesulfonamide]: 5.00 to 6.00; `CC(C)(C)NS(=O)(=O)c1cc(Cl)c(O)c(N2[C@@H]3CC[C@H]2CN(C(=O)c2ccc(F)cc2Cl)C3)c1` [compound 095, N-tert-butyl-3-chloro-5-[(1S,5R)-3-(2-chloro-4-fluoro-benzoyl)-3,8-diazabicyclo[3.2.1]octan-8-yl]-4-hydroxy-benzenesulfonamide]: over 6.00.
`CCCN(C)S(=O)(=O)c1ccc(OC)c(N2C3CCC2CN(C(=O)c2ccc(F)cc2C(F)(F)F)C3)c1` [compound 024, 3-[3-[4-fluoro-2-(trifluoromethyl)benzoyl]-3,8-diazabicyclo[3.2.1]octan-8-yl]-4-methoxy-N-methyl-N-propyl-benzenesulfonamide]: the pEC50 is 5.00 to 6.00.
On to `CN(C1COC1)S(=O)(=O)c1cc(Cl)c(O)c(N2[C@@H]3CC[C@H]2CN(C(=O)c2ccc(F)cc2Cl)C3)c1` [compound 109, 3-chloro-5-[(1S,5R)-3-(2-chloro-4-fluoro-benzoyl)-3,8-diazabicyclo[3.2.1]octan-8-yl]-4-hydroxy-N-methyl-N-(oxetan-3-yl)benzenesulfonamide], for which the pEC50 is 5.00 to 6.00.
Turning to `CN(C(C)(C)C)S(=O)(=O)c1cc(Cl)c(OCc2ccncc2)c(N2[C@@H]3CC[C@H]2CN(C(=O)c2ccc(F)cc2Cl)C3)c1` [compound 138, N-tert-butyl-3-chloro-5-[(1S,5R)-3-(2-chloro-4-fluoro-benzoyl)-3,8-diazabicyclo[3.2.1]octan-8-yl]-N-methyl-4-(4-pyridylmethoxy) benzenesulfonamide], the pEC50 was over 6.00.

Values taken from US20260022096A1, “NOVEL SULFONAMIDES AND THEIR USE AS NEUROPROTECTIVE AND/OR NEURORESTORATIVE AGENTS” (GENECODE, priority 2022, published 2026).
